Consider one substance from patent US4774320A, “Synthetic peptide with human interleukin 1 activity” (Sclavo S.p.A., priority 1986, dated 1988).

For one test, the system named is CTLL-2 cells. The test can be described thus: Substances tested directly on IL-2-dependent CTLL cells (no splenocyte supernatant; upper part of Table 2). In kind it is cell-based. Conditions: dilution 1/10.
Test [1] deals with T cells from the spleen of C3H/HeJ mice. As to the kind of experiment: Induction of IL-2 production in ConA-activated spleen T cells; supernatants tested for growth of IL-2-dependent CTLL-2 cells. In kind it is cell-based. The note with it: supernatants of splenocytes incubated 48 hours with ConA and substance, dilution 1/10. As to the method:
For the purpose of establishing whether the activity of costimulation of the murine thymocytes on the part of the synthetic peptide is due, as in the case of human IL-1, to the induction of the production of IL-2, the following test was carried out.
T cells from the spleen of C3H/HeJ mice, separated on nylon wool as reported by Julius, M. H. et al., Eur. J. Immunol. 3, 645 (1973), are incubated in duplicate for 48 hours at 37° C. in 1 ml of RPMI 1640 medium (GIBCO), supplemented by N-2-hydroxyethylpiperazine N'-2-ethanesulphonic acid (HEPES), L-glutamine, gentamycin, 10% bovine foetal serum and 2-mercaptoethanol (2.5×10^-5 M), in the presence of graduated concentrations (840-420-210 μg/ml) of the synthetic peptide 163-171 and of purified human IL-1B as standard, with the addition of concanavalin A (ConA) as costimulant.
At the end of the period of incubation, the supernatant is separated from the culture and a determination is made of its capacity to promote the growth of CTLL-2 cells dependent upon IL-2 according to the method reported by Gillis S. M. et al. (J. Immunol. 120, 2027 (1978)).
The mitogenic activity of IL-2 on CTLL-2 cells is measured, either by determining the number of cells after 24 hours of culturing or by means of the assessment of the incorporation of tritiated thymidine in the cells. […]

Take “Human IL-1β: purified human IL-1B standard (Genzyme Boston Mass.)”: in the test on CTLL-2 cells, the “IL-2 (mU/ml)” value is 1 mU/ml and the “Stimulation index + SE of CTLL cells” value is reported as 0.93 ± 0.02. Besides, in test [1], the “IL-2 (mU/ml)” value came out at 38 mU/ml and the “Stimulation index + SE of CTLL cells” value amounted to 15.27 ± 0.88.
